Assay results from patent US20240158446A1, “CYCLIC COMPOUND HAVING SELECTIVE INHIBITORY ACTION ON KRAS OVER HRAS AND NRAS” (CHUGAI SEIYAKU KABUSHIKI KAISHA, priority 2021, published 2024).
*1 amine or outer side, *2 acyl side, *3 side chain or, on linkers, in order; H or OH if unused. Where a SMILES comes first, the peptide text is derived from it. Bridges are numbered along the chain shown (N, C = ends). [ ]: non-standard residue; d: D form. The star is where a group is joined. hPhe(3-Cl-4-CF3) = N[C@@H](CCc1ccc(C(F)(F)F)c(Cl)c1)C(=O)O; NPrPhe(4-CF3) = CCCN[C@@H](Cc1ccc(C(F)(F)F)cc1)C(=O)O; NEtPhe(4-CF3) = CCN[C@@H](Cc1ccc(C(F)(F)F)cc1)C(=O)O; X33 = C[C@@H]1CN([*:1])[C@@H]1C(=O)[*:2]; NMeGly(cPent) = CN[C@H](C(=O)O)C1CCCC1; X44 = CC1(C)CN([*:1])[C@@H]1C(=O)[*:2]; Aze(3S-Me) = C[C@H]1CN[C@@H]1C(=O)O; NMeD = CN[C@@H](CC(=O)O)C(=O)O; NMeL = CN[C@@H](CC(C)C)C(=O)O; Pip = O=C(O)[C@@H]1CCCCN1; Morpholide = C1CN(*)CCO1; Ac5c = NC1(C(=O)O)CCCC1; Aze = O=C(O)[C@@H]1CCN1; Ac3c = NC1(C(=O)O)CC1; Aib = CC(C)(N)C(=O)O; NEtG = CCNCC(=O)O; Sar = CNCC(=O)O

Key:
[1] = target: GDP-bound NRAS wild-type protein (Homo sapiens, UniProt P01111); assay: Binding to NRAS by surface plasmon resonance (SPR), Single Cycle Kinetics; conditions: SPR, GDP-bound NRAS wild-type protein vs GDP-bound KRAS wild-type protein
[2] = target: GDP-bound HRAS wild-type protein (Homo sapiens, UniProt P01112); assay: Binding to HRAS by surface plasmon resonance (SPR), Single Cycle Kinetics; conditions: SPR, GDP-bound HRAS wild-type protein vs GDP-bound KRAS wild-type protein
[3] = tested on: human lung cancer strain NCI-H441;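 further: cell proliferation inhibition after four days measured by CellTiter-Glo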

Chain of GDP-bound NRAS wild-type protein (P01111 whole entry): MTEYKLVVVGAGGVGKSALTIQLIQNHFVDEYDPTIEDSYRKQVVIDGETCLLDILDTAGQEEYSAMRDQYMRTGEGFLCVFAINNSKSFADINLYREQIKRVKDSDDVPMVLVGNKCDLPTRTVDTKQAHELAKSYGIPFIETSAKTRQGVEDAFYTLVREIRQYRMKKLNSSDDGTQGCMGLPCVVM
Chain of GDP-bound HRAS wild-type protein (P01112 whole entry): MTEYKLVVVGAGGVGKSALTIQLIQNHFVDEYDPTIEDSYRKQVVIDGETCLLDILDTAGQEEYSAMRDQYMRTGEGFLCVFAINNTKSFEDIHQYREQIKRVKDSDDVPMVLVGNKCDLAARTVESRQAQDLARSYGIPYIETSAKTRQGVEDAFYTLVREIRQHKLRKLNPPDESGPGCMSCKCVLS

Q: Which “NRAS/KRAS (ratio of KD value for NRAS to KD value for KRAS)” value [1] does the source give for CC[C@H](C)[C@@H]1NC(=O)[C@H](CC(C)C)N(C)C(=O)C[C@@H](C(=O)N2CCOCC2)N(C)C(=O)[C@H](C2CCCC2)N(C)C(=O)C2(CC2)NC(=O)[C@@H]2CCCN2C(=O)[C@H](CCc2ccc(C(F)(F)F)c(Cl)c2)NC(=O)CN(C)C(=O)[C@H](Cc2ccc(C(F)(F)F)cc2)N(CC)C(=O)CN(C)C(=O)CN(C)C1=O [PP0234] ([NMeL]I[Sar][Sar][NEtPhe(4-CF3)][Sar][hPhe(3-Cl-4-CF3)]P[Ac3c][NMeGly(cPent)][NMeD]-Morpholide; lactam N-11) here?
A: Its value is “B (a compound having 3 or more and less than 10 is denoted as B)”.

Q: And the “HRAS/KRAS (ratio of KD value for HRAS to KD value for KRAS)” value [2]?
A: Its value is “C (A compound having a KD ratio of 0.1 or more and less than 3 is denoted as C)”.

Q: And the IC50 [3]?
A: Its IC50 is 49.9 nM.

Q: Which “NRAS/KRAS (ratio of KD value for NRAS to KD value for KRAS)” value [1] does the source give for CC[C@H](C)[C@@H]1NC(=O)[C@H](CC(C)C)N(C)C(=O)C[C@@H](C(=O)N2CCOCC2)N(C)C(=O)[C@H](C2CCCC2)N(C)C(=O)C(C)(C)NC(=O)[C@@H]2CCCN2C(=O)[C@H](CCc2ccc(C(F)(F)F)c(Cl)c2)NC(=O)CN(C)C(=O)[C@H](Cc2ccc(C(F)(F)F)cc2)N(CC)C(=O)CN(C)C(=O)CN(C)C1=O [PP0235] ([NMeL]I[Sar][Sar][NEtPhe(4-CF3)][Sar][hPhe(3-Cl-4-CF3)]P[Aib][NMeGly(cPent)][NMeD]-Morpholide; lactam N-11) here?
A: Its value is “B (a compound having 3 or more and less than 10 is denoted as B)”.

Q: And the “HRAS/KRAS (ratio of KD value for HRAS to KD value for KRAS)” value [2]?
A: Its value is “C (A compound having a KD ratio of 0.1 or more and less than 3 is denoted as C)”.

Q: And the IC50 [3]?
A: Its IC50 is 4.5 nM.

Q: With CCCN1C(=O)CN(C)C(=O)[C@@H]2[C@H](C)CN2C(=O)[C@H]([C@@H](C)CC)NC(=O)[C@H](CC(C)C)N(C)C(=O)C[C@@H](C(=O)N2CCOCC2)N(C)C(=O)[C@H](C2CCCC2)N(C)C(=O)C2(CCCC2)NC(=O)[C@@H]2CCCN2C(=O)[C@H](CCc2ccc(C(F)(F)F)c(Cl)c2)NC(=O)CN(C)C(=O)[C@@H]1Cc1ccc(C(F)(F)F)cc1 [PP0257] ([NMeL]I[X33][Sar][NPrPhe(4-CF3)][Sar][hPhe(3-Cl-4-CF3)]P[Ac5c][NMeGly(cPent)][NMeD]-Morpholide; lactam N-11) as the molecule, how does the “NRAS/KRAS (ratio of KD value for NRAS to KD value for KRAS)” value [1] read?
A: Its value is “B (a compound having 3 or more and less than 10 is denoted as B)”.

Q: What about the “HRAS/KRAS (ratio of KD value for HRAS to KD value for KRAS)” value [2] of the same molecule?
A: The value was “B (a compound having 3 or more and less than 10 is denoted as B)”.

Q: And the IC50 [3]?
A: The IC50 was 30.8 nM.

Q: How did the “NRAS/KRAS (ratio of KD value for NRAS to KD value for KRAS)” value [1] turn out when CCCN1C(=O)CN(C)C(=O)[C@@H]2[C@@H](C)CN2C(=O)[C@H]([C@@H](C)CC)NC(=O)[C@H](CC(C)C)N(C)C(=O)C[C@@H](C(=O)N2CCOCC2)N(C)C(=O)[C@H](C2CCCC2)N(C)C(=O)C2(CCCC2)NC(=O)[C@@H]2CCCN2C(=O)[C@H](CCc2ccc(C(F)(F)F)c(Cl)c2)NC(=O)CN(C)C(=O)[C@@H]1Cc1ccc(C(F)(F)F)cc1 [PP0258] ([NMeL]I[Aze(3S-Me)][Sar][NPrPhe(4-CF3)][Sar][hPhe(3-Cl-4-CF3)]P[Ac5c][NMeGly(cPent)][NMeD]-Morpholide; lactam N-11) was run?
A: Its value is “B (a compound having 3 or more and less than 10 is denoted as B)”.

Q: What about the “HRAS/KRAS (ratio of KD value for HRAS to KD value for KRAS)” value [2] of the same molecule?
A: The value was “C (A compound having a KD ratio of 0.1 or more and less than 3 is denoted as C)”.

Q: And the IC50 [3]?
A: The IC50 was 11.3 nM.

Q: With CCCN1C(=O)[C@@H]2CCN2C(=O)[C@H]2N(CC2(C)C)C(=O)[C@H]([C@@H](C)CC)NC(=O)[C@H](CC(C)C)N(C)C(=O)C[C@@H](C(=O)N2CCOCC2)N(C)C(=O)[C@H](C2CCCC2)N(C)C(=O)C2(CCCC2)NC(=O)[C@@H]2CCCN2C(=O)[C@H](CCc2ccc(C(F)(F)F)c(Cl)c2)NC(=O)CN(C)C(=O)[C@@H]1Cc1ccc(C(F)(F)F)cc1 [PP0277] ([NMeL]I[X44][Aze][NPrPhe(4-CF3)][Sar][hPhe(3-Cl-4-CF3)]P[Ac5c][NMeGly(cPent)][NMeD]-Morpholide; lactam N-11) as the molecule, how does the “NRAS/KRAS (ratio of KD value for NRAS to KD value for KRAS)” value [1] read?
A: Its value is “C (A compound having a KD ratio of 0.1 or more and less than 3 is denoted as C)”.

Q: And the “HRAS/KRAS (ratio of KD value for HRAS to KD value for KRAS)” value [2]?
A: The value was “C (A compound having a KD ratio of 0.1 or more and less than 3 is denoted as C)”.

Q: What about the IC50 [3] of the same molecule?
A: The IC50 was 6.7 nM.

Q: Which “NRAS/KRAS (ratio of KD value for NRAS to KD value for KRAS)” value [1] does the source give for CCCN1C(=O)CN(C)C(=O)CN(CC)C(=O)[C@H]([C@@H](C)CC)NC(=O)[C@H](CC(C)C)N(C)C(=O)C[C@@H](C(=O)N2CCOCC2)N(C)C(=O)[C@H](C2CCCC2)N(C)C(=O)C2(CCCC2)NC(=O)[C@@H]2CCCCN2C(=O)[C@H](CCc2ccc(C(F)(F)F)c(Cl)c2)NC(=O)CN(C)C(=O)[C@@H]1Cc1ccc(C(F)(F)F)cc1 [PP0297] ([NMeL]I[NEtG][Sar][NPrPhe(4-CF3)][Sar][hPhe(3-Cl-4-CF3)][Pip][Ac5c][NMeGly(cPent)][NMeD]-Morpholide; lactam N-11) here?
A: The value was “B (a compound having 3 or more and less than 10 is denoted as B)”.

Q: What about the “HRAS/KRAS (ratio of KD value for HRAS to KD value for KRAS)” value [2] of the same molecule?
A: The value was “C (A compound having a KD ratio of 0.1 or more and less than 3 is denoted as C)”.

Q: And the IC50 [3]?
A: The IC50 was 74.3 nM.
